Patent US20180228787A1, “AMELIORATION OF CERTAIN DEFICIENCIES DUE TO STROKE” (NEURALSTEM, INC., priority 2017, published 2018)

What was measured:
Type in all cases: in vivo, Sprague-Dawley rats
MAP2 = MAP2 immunohistochemistry of stroke brains
From the text: (§1) At scheduled intervals post-stroke (either 12 weeks or 24 weeks), rats of Example 1 were randomly euthanized (n=12 per treatment), perfused by transcardial perfusion with 4% paraformaldehyde. The brains were dissected, post-fixed for overnight in 4% paraformaldehyde, then subsequently immersed in 30% sucrose until immunohistochemical processing. Brain section preparations were designed to identify stroke-induced cerebral infarction and NSI-189-induced neurogenic effects.
(§2) Brains were embedded in gelatin blocks and sectioned on a freezing sliding microtome at 40-μm. The sections were washed in PBS 5×10 min to remove the antigen preservative solution. Endogenous peroxidase was blocked using 3% H2O2 for 15 minutes. The sections were then incubated in 1% Triton-X100 for 30 minutes, and then blocked with 5% Normal Horse Serum (NETS) for 1 hour. The sections were incubated with the primary antibody that binds Ki67 (1:2000, Cat. #: ab16667, Abcam, CA) or that binds MAP2 (1:2000, Cat. #: AB5622, Millipore, MA) overnight, rinsed 5×5 min in PBS prior to pre-incubation in 5% NHS for 1 hour, then incubated with the secondary antibody which corresponded to the respective host of the primary antibody (Donkey or Rabbit, 1:2000, Cat. #: 711-066-152, Jackson ImmunoResearch Laboratories, Inc, PA) for 90 minutes. After rinsing in PBS (5×5 min), the sections were incubated with peroxidase-conjugated streptavidin (1:5000, Cat. #: 016-030-084, Jackson ImmunoResearch Laboratories, Inc, PA) with 1% NHS. The sections were washed 5×5 min in PBS after the streptavidin, prior to developing with DAB (3,3′-Diaminobenzidine Tetrahydrochloride Hydrate, Cat #: 1001306853, Sigma-Aldrich, St. Louis, Mo.) and Nickel chloride. After DAB processing, the sections were rinsed, mounted, and air-dried overnight. The slides were dehydrated, and coverslipped with DPX Mounting Medium (Cat #: 13512, Electron Microscopy Sciences, Hatfield, Pa.).
(§3) The slides were imaged and reviewed under Nikon bright-field microscope (Nikon, Tokyo, Japan). The regions of interest (ROIs), including the cerebral cortex, the hippocampal subfields (CA1+CA2, CA3 and DG) were contoured rostro-caudally and the immunoreactivity of the MAP2 density was measured by Nikon NIS-Element software and Ki67+ cells counted rostro-caudally along the subgranular zone (SGZ) by Image-Pro Premier (v10.10), respectively. The slides were coded and blinded to the analysts during the course of the study. After completion, quantitative data were extracted and transferred for the statistical analysis (Prism, GraphPad®, La Jolla, Calif.). The data values between groups were compared using ANOVA with Tukey's post-hoc tests (p<0.05).

[1] = system: middle cerebral artery occlusion (MCAo) stroke rats; experiment: Elevated body swing test (EBST) after MCAo stroke
From the text: (§4) A. Stroke surgery. Sixty (60) adult Sprague-Dawley, male rats (weighing around 250 g at beginning of the study) received experimental stroke surgery using the middle cerebral artery occlusion (MCAo) model, under aseptic conditions. […] were anesthetized with 1-2% isoflurane in nitrous oxide/oxygen (69%/30%) using a face mask and checked for pain reflexes. Under deep anesthesia, animals underwent the MCAo surgery which entails insertion of a filament through the carotid artery to reach the junction of the MCA, thus blocking the blood flow from the common carotid artery, as well as from the circle of Willis.
The right common carotid artery was identified and isolated through a ventral midline cervical incision and suture size 4-0, made of sterile, non-absorbable suture (Ethicon, Inc.), with the diameter of the suture tip tapered to 24 to 26-gauge size using a rubber cement. […]
To further ensure similar degree of stroke insults, physiological parameters including PaO2, PaCO2, and plasma pH measurements were monitored. Based on laser Doppler readouts and behavioral tests after MCAs, a total of 48 animals were enrolled in this study. […]
C. […] The direction of the swing, either left or right, was counted once the animals head moves sideways approximately 10 degrees from the midline position of the body. […]

[2] = system: middle cerebral artery occlusion (MCAo) stroke rats; experiment: Bederson neurological exam after MCAo stroke
From the text: as §4
The right common carotid artery was identified and isolated through a ventral midline cervical incision and suture size 4-0, made of sterile, non-absorbable suture (Ethicon, Inc.), with the diameter of the suture tip tapered to 24 to 26-gauge size using a rubber cement. About 15 to 17 mm of the filament was inserted from the junction of the external and internal carotid arteries to block the MCA. The right MCA was occluded for one hour. A heating pad and a rectal thermometer allowed maintenance of body temperature within normal limits (37±0.3° C.).
To further ensure similar degree of stroke insults, physiological parameters including PaO2, PaCO2, and plasma pH measurements were monitored. Based on laser Doppler readouts and behavioral tests after MCAs, a total of 48 animals were enrolled in this study.
B. Drug Treatment. In the treated subjects, 30 mg/kg of the phosphate of formula (2) wherein R^1 is isoamyl (NSI-189 H3PO4 (mol. wt. 464.50)), 99.8% pure based on the weight of the API (active pharmaceutical ingredient) base without the weight of phosphate salt was administered orally in 0.03N HCl in deionized water (n=24) or vehicle (n=24) was administered following MCAo 6 hours after stroke, and daily for the next 12 weeks.
About one hour after the EBST, the Bederson neurological exam was conducted using 3 tests: (1) forelimb retraction—measuring the ability of the rat to replace the forelimb after it was displaced laterally by 2 to 3 cm, graded from 0 (immediate replacement) to 3 (replacement after several seconds or no replacement); (2) beam walking ability, graded 0 for a rat that readily traversed a 2.4-cm-wide, 80-cm-long beam to 3 for a rat unable to stay on the beam for 10 seconds; and (3) bilateral forepaw grasp—the ability to hold onto a 2-mm-diameter steel rod, graded 0 for a rat with normal forepaw grasping behavior to 3 for a rat unable to grasp with the forepaws. The scores from all 3 tests, which were done over a period of about 15 minutes on each assessment day, were added to give a mean neurologic deficit score (maximum possible score, 9 points divided by 3 tests=3). […]

Ki67 = Ki67 immunohistochemistry of stroke brains
From the text: as §1
as §2, with “The sections were washed 5×5 min in PBS after the streptavidin, prior to developing with DAB (3,3′-Diaminobenzidine Tetrahydrochloride Hydrate, Cat #: 1001306853, Sigma-Aldrich, St. Louis, Mo.) and Nickel chloride. After DAB processing, the sections were rinsed, mounted, and air-dried overnight. The slides were dehydrated, and coverslipped with DPX Mounting Medium (Cat #: 13512, Electron Microscopy Sciences, Hatfield, Pa.).” left out
as §3, with “The slides were coded and blinded to the analysts during the course of the study.” left out, “The data values between groups were compared using ANOVA with Tukey's post-hoc tests (p<0.05).” left out

[3] = 12 weeks and 24 weeks post-stroke, vs vehicle, p's>0.05
[4] = vs vehicle-treated stroke animals

CC(C)CCNc1ncccc1C(=O)N1CCN(Cc2ccccc2)CC1.O=P(O)(O)O [NSI-189 phosphate]
MAP2 density in the cerebral cortex (MAP2; 12-week period, vs vehicle, p's<0.05): amplified MAP2 density
MAP2 density in the hippocampus (MAP2; 12-week time point, vs vehicle, p's<0.05): increased MAP2 density
cerebral infarction by MAP2 expression in the cortex and striatum (MAP2; [3]): did not significantly differ between groups
MAP2 density in the cerebral cortex (MAP2; 24-week time point, vs vehicle): only detected at the 12-week period
MAP2 density in the hippocampus (MAP2; 24-week time point, vs vehicle, p's<0.05): increased MAP2 density
MAP2 staining (neurogenesis) in the peri-infarct cortex (MAP2; [4]): increased Ki67 and MAP2 staining
restoring motor skills in the EBST ([1]; 30 mg/kg orally 6 hours after stroke and daily for 12 weeks, vs vehicle): successful in restoring motor skills
performance in the EBST (FIG. 1) ([1]; 30 mg/kg orally daily for 12 weeks, controls showed no such recovery): recovered performance in the EBST almost to baseline levels
restoring motor skills in the Bederson neurological exam ([2]; MCAo rats, 30 mg/kg orally 6 hours after stroke and daily for 12 weeks, vs vehicle): successful in restoring motor skills
performance in the Bederson neurological exam (FIG. 2) ([2]; MCAo rats, 30 mg/kg orally daily for 12 weeks, after 6 months): performance approaching that of control even after 6 months
control of motor skills compared to vehicle animals ([2]; day 3 post stroke, p<0.05): showed control of motor skills as early as day 3 post stroke
improvement of motor skills over time compared to untreated animals ([2]; during 12 weeks of drug treatment and the next 12 weeks after withdrawal, p<0.05): continued to improve over time compared to untreated animals
Ki67 level in hippocampal subgranular zone (SGZ) (Ki67; [3]): comparable levels of Ki67
Ki67 level in subventricular zone (SVZ) (Ki67; [3]): comparable levels of Ki67
Ki67 staining (cell proliferation) in the peri-infarct cortex (Ki67; [4]): increased Ki67
